Patent US12643903B2, “Bifunctional compounds for degradation of EGFR and related methods of use” (BeiGene, Ltd., priority 2020, dated 2026)

Columns and labels:
Type in all cases: cell-based
Details in all cases: 16 h treatment, EGFR degradation by HTRF
EGFR DTC = test: Cell Degradation 3: EGFR degradation in BaF3 cells (DTC), HTRF assay
Procedure: (§1) Cell Degradation 3 Cell Treatment
(§2) BaF3 cells are treated with compounds diluted in 0.2% DMSO, dilution is done according to the following protocol: (1) make 500× stock solution in DMSO from 5 mM by 4-fold dilution, total 8 doses were included; (2) make 2× solution in cell culture medium by transferring 0.5 μl 500× stock solution into 125 μl medium; (3) 30 μl of 2× solution is added to cells and incubate for 16 h.
(§3) After 16 h treatment, add 20 μl 4×lysis buffer to each well; seal the plate and incubate 1 hour at room temperature on a plate shaker; Once the cells are lysed, 16 μL of cell lysate are transferred to a PE 384-well HTRF detection plate (for triple mutant cells, the lysate were diluted by the qual volume 1×lysis buffer before transfer); 4 μL of pre-mixed HTRF antibodies are added to each well; Cover the plate with a plate sealer, spin 1000 rpm for 1 min, Incubate overnight at room temperature; Read on BMG PheraStar with HTRF protocol (337 nm-665 nm-620 nm).
(§4) The IC50 (DC50) value of a compound can be obtained by fitting the following equation Y=Bottom+(TOP−Bottom)/(1+((IC50/X)^hillslope))
(§5) Wherein, X and Y are known values, and IC50, Hillslope, Top and Bottom are the parameters obtained by fitting with software. Y is the inhibition percentage (calculated from the equation), X is the concentration of the compound; IC50 is the concentration of the compound when the 50% inhibition is reached. The smaller the IC50 value is, the stronger the inhibitory ability of the compound is. Vice versa, the higher the IC50 value is, the weaker the ability the inhibitory ability of the compound is; Hillslope represents the slope of the fitted curve, generally around 1*; Bottom represents the minimum value of the curve obtained by data fitting, which is generally 0%±20%; Top represents the maximum value of the curve obtained by data fitting, which is generally 100%±20%. The experimental data were fitted by calculating and analyzing with Dotmatics data analysis software.

EGFR LTC = target: T1, EGFR LTC (Homo sapiens, UniProt P00533, C797S/L858R/T790M); test: Cell Degradation 3: EGFR degradation in BaF3 cells (LTC), HTRF assay
T1 construct: expressed in transfected cells; host or cells: BaF3
T1 sequence (P00533 25-1210 T790M/C797S/L858R): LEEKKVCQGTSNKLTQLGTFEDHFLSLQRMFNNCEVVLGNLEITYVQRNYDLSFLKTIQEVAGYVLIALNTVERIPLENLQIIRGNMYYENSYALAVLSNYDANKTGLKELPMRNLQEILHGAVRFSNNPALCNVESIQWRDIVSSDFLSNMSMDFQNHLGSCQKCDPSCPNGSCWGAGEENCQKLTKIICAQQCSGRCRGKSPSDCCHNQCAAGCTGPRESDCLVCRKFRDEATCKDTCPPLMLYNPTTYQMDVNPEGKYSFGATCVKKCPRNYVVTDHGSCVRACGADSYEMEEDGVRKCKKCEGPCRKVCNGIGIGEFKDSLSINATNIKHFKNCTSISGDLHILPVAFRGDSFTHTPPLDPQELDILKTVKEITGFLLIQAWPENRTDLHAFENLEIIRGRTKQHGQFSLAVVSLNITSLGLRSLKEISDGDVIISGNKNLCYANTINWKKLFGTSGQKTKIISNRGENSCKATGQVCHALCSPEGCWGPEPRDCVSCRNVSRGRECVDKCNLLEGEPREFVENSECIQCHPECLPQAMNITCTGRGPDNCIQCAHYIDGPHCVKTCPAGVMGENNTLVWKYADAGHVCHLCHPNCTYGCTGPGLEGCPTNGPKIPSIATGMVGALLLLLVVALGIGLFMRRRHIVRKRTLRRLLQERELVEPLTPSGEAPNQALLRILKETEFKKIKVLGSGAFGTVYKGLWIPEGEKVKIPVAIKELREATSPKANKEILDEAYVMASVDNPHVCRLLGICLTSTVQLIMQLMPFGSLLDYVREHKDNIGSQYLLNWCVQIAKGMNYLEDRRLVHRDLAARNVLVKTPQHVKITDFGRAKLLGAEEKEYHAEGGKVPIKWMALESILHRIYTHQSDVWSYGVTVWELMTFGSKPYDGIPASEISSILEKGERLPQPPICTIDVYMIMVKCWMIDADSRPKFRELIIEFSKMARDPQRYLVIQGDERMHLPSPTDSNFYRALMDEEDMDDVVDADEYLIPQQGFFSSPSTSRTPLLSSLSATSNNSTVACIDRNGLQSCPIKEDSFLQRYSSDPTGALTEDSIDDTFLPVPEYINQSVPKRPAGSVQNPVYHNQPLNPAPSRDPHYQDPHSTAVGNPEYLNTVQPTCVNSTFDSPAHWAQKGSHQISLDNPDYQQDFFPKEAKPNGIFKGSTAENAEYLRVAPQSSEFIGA
Procedure: as §1, §2, §3, §4, §5

EGFR [1] = target: T2, EGFR (Homo sapiens, UniProt P00533, DEL746-750); test: Cell Degradation 2: EGFR degradation in HCC827 cells, HTRF assay
T2 construct: endogenous in cells; host or cells: HCC827
T2 sequence (P00533 with tags, fused parts or gaps DEL746-750): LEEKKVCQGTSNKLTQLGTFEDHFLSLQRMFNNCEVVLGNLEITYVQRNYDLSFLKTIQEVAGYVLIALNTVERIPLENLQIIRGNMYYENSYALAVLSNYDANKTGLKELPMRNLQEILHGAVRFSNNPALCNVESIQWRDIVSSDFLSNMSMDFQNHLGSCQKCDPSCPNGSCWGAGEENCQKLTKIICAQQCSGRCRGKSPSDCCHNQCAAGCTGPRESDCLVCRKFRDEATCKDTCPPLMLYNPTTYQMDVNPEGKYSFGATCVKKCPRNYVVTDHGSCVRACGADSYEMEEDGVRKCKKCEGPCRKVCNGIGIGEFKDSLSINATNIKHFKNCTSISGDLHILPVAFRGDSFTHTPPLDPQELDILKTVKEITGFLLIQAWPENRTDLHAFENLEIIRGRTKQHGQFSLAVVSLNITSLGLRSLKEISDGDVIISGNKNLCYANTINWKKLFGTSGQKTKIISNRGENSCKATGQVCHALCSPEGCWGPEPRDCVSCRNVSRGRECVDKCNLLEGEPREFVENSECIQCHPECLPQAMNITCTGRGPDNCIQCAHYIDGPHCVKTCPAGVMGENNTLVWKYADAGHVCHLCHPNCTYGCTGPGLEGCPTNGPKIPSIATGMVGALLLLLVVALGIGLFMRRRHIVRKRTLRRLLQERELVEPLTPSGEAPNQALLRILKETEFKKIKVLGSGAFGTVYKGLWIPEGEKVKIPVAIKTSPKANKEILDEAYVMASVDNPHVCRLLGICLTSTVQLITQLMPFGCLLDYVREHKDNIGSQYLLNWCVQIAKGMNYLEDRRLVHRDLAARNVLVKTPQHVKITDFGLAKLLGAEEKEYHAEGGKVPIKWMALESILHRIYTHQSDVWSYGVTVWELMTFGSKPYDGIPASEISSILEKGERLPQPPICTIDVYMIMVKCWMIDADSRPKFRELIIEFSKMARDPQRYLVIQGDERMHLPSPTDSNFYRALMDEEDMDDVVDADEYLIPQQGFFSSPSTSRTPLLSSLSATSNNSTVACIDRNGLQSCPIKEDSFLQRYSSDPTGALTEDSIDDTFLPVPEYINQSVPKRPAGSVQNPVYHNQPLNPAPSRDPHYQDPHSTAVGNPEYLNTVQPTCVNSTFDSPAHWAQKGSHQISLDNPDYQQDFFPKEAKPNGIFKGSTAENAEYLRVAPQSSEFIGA
T2 sequence (Q96SW2 whole entry partner): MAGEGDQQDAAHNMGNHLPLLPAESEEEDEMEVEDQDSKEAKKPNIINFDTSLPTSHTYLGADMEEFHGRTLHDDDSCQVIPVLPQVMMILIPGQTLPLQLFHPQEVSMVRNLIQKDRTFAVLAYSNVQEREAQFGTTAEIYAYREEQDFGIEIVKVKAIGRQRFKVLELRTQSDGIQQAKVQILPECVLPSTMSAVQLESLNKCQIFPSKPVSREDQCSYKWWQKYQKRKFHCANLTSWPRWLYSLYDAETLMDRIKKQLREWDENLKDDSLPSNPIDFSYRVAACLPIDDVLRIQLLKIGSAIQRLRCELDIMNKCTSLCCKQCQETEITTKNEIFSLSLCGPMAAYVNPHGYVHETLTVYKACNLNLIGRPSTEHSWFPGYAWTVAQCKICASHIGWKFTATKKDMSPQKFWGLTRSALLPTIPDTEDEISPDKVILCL
Outline: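 Compound-treated HCC827 cells were lysed after 16 h and EGFR measured by HTRF (337 nm excitation, 665/620 nm emission) after overnight antibody incubation at room temperature. DC50 came from a four-parameter fit of percent inhibition against compound concentration.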

EGFR [2] = target: T3, EGFR (Homo sapiens, UniProt P00533, L858R/T790M); test: Cell Degradation 1: EGFR degradation in H1975 cells, HTRF assay
T3 construct: endogenous in cells; host or cells: H1975
T3 sequence (P00533 25-1210 T790M/L858R): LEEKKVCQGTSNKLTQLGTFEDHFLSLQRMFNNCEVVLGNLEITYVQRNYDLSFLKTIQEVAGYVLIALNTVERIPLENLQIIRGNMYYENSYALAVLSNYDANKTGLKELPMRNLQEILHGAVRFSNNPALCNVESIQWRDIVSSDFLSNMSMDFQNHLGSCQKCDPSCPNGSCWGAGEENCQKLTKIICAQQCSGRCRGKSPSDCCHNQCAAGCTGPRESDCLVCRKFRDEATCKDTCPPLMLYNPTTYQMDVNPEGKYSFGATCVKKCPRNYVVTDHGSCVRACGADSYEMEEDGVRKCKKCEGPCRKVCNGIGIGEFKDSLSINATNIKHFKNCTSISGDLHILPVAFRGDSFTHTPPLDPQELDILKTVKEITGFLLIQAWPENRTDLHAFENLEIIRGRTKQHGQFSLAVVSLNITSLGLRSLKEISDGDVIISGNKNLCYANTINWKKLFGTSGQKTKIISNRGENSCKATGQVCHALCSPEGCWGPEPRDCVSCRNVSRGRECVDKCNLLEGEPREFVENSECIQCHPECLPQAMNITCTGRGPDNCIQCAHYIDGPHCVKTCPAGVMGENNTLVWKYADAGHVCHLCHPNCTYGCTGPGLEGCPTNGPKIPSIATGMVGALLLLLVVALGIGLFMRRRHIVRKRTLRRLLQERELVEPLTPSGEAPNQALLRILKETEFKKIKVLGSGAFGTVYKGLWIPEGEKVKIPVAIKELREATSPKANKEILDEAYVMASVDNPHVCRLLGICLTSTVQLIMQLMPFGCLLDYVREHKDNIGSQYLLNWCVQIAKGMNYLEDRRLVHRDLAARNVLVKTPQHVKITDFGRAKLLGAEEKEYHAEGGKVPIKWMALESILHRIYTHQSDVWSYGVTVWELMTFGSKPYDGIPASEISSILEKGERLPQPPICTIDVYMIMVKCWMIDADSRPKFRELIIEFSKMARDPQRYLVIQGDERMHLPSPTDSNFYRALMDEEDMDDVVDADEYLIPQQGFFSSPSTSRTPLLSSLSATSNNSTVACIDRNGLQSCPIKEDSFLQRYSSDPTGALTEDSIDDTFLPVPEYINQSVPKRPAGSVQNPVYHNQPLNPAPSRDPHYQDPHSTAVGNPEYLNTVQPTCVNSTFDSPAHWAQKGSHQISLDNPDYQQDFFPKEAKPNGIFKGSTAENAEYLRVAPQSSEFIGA
Outline: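 H1975 cells treated with compound for 16 h, lysed 1 h at room temperature. EGFR measured by HTRF after overnight antibody incubation (665/620 nm). DC50 from four-parameter logistic fit of percent inhibition against concentration.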

`COc1cc(N2CCC(N3CCN(CCc4ccc(C5CCC(=O)NC5=O)cc4)CC3)CC2)ccc1Nc1ncc(Cl)c(Nc2cccc3c2N(S(C)(=O)=O)CC3)n1` (centres unmarked) [Example 34, 3-(4-(2-(4-(1-(4-((5-chloro-4-((1-(methylsulfonyl)indolin-7-yl)amino)pyrimidin-2-yl)amino)-3-methoxyphenyl)piperidin-4-yl)piperazin-1-yl)ethyl)phenyl)piperidine-2,6-dione] was tested, and the DC50 (EGFR DTC) was 38.2 nM, the DC50 (EGFR LTC) was 276 nM and the DC50 (EGFR [1]) was 6.7 nM. The DC50 (EGFR [2]) was 7 nM.

Molecule `COc1cc(N2CCC(N3CCN(CCC4CCN(c5ccc6c(c5)C(=O)N(C5CCC(=O)NC5=O)C6=O)CC4)CC3)CC2)ccc1Nc1ncc(Cl)c(Nc2cccc3c2N(S(C)(=O)=O)CC3)n1` (centres unmarked) [Example 37, 5-(4-(2-(4-(1-(4-((5-chloro-4-((1-(methylsulfonyl)indolin-7-yl)amino)pyrimidin-2-yl)amino)-3-methoxyphenyl)piperidin-4-yl)piperazin-1-yl)ethyl)piperidin-1-yl)-2-(2,6-dioxopiperidin-3-yl)isoindoline-1,3-dione] has a DC50 (EGFR DTC) of 16.7 nM, a DC50 (EGFR LTC) of 43.1 nM and a DC50 (EGFR [1]) of 3.5 nM. For the same molecule, the DC50 (EGFR [2]) was 3.8 nM.

For `COc1cc(N2CCC(N3CCN(CC4CN(c5ccc6c(c5)CN(C5CCC(=O)NC5=O)C6=O)C4)CC3)CC2)ccc1Nc1ncc(Cl)c(Nc2cccc3c2N(S(C)(=O)=O)CC3)n1` (centres unmarked) [Example 85, 3-(5-(3-((4-(1-(4-((5-chloro-4-((1-(methylsulfonyl)indolin-7-yl)amino)pyrimidin-2-yl)amino)-3-methoxyphenyl)piperidin-4-yl)piperazin-1-yl)methyl)azetidin-1-yl)-1-oxoisoindolin-2-yl)piperidine-2,6-dione], the DC50 (EGFR DTC) was 1.8 nM, the DC50 (EGFR LTC) was 2.8 nM and the DC50 (EGFR [1]) was 2.9 nM. It also gave a DC50 (EGFR [2]) of 3 nM.

With `COc1cc(N2CCN(C3CCN(CCc4ccc(C5CCC(=O)NC5=O)cc4)CC3)CC2)ccc1Nc1ncc(Cl)c(Nc2cccc3c2N(S(C)(=O)=O)CC3)n1` (centres unmarked) [Example 38, 3-(4-(2-(4-(4-(4-((5-chloro-4-((1-(methylsulfonyl)indolin-7-yl)amino)pyrimidin-2-yl)amino)-3-methoxyphenyl)piperazin-1-yl)piperidin-1-yl)ethyl)phenyl)piperidine-2,6-dione] the DC50 (EGFR DTC) was 176 nM, the DC50 (EGFR LTC) was 230 nM and the DC50 (EGFR [1]) was 9.7 nM. It also gave a DC50 (EGFR [2]) of 9.8 nM.

Work on `CS(=O)(=O)N1CCc2cccc(Nc3nc(Nc4ccc(N5CCC(N6CCN(CCc7ccc(C8CCC(=O)NC8=O)c(F)c7)CC6)CC5)c5c4OCC5)ncc3Cl)c21` (centres unmarked) [Example 53, 3-(4-(2-(4-(1-(7-((5-chloro-4-((1-(methylsulfonyl)indolin-7-yl)amino)pyrimidin-2-yl)amino)-2,3-dihydrobenzofuran-4-yl)piperidin-4-yl)piperazin-1-yl)ethyl)-2-fluorophenyl)piperidine-2,6-dione] yielded a DC50 (EGFR DTC) of 21.8 nM, a DC50 (EGFR LTC) of 35.7 nM and a DC50 (EGFR [1]) of 3.7 nM. It also gave a DC50 (EGFR [2]) of 2.6 nM.

`CS(=O)(=O)N1CCc2cccc(Nc3nc(Nc4ccc(N5CCC(N6CCN(CCC7CCN(c8ccc(C9CCC(=O)NC9=O)c(F)c8)CC7)CC6)CC5)c(F)c4)ncc3Cl)c21` (centres unmarked) [Example 80, 3-(4-(4-(2-(4-(1-(4-((5-chloro-4-((1-(methylsulfonyl)indolin-7-yl)amino)pyrimidin-2-yl)amino)-2-fluorophenyl)piperidin-4-yl)piperazin-1-yl)ethyl)piperidin-1-yl)-2-fluorophenyl)piperidine-2,6-dione] was tested, and the DC50 (EGFR DTC) was 6.5 nM, the DC50 (EGFR LTC) was 12.2 nM and the DC50 (EGFR [1]) was 4.3 nM. The DC50 (EGFR [2]) was 5.5 nM.

`COc1cc(N2CCC(N3CCN(C(=O)C4CN(c5ccc6c(c5)CN(C5CCC(=O)NC5=O)C6=O)C4)CC3)CC2)c(C)cc1Nc1ncc(Br)c(Nc2cccc3c2N(S(C)(=O)=O)CC3)n1` (centres unmarked) [Example 172, 3-(5-(3-(4-(1-(4-((5-bromo-4-((1-(methylsulfonyl)indolin-7-yl)amino)pyrimidin-2-yl)amino)-5-methoxy-2-methylphenyl)piperidin-4-yl)piperazine-1-carbonyl)azetidin-1-yl)-1-oxoisoindolin-2-yl)piperidine-2,6-dione] showed a DC50 (EGFR DTC) of 4 nM, a DC50 (EGFR LTC) of 9 nM and a DC50 (EGFR [1]) of 2 nM.

`COc1cc(N2CCC(N3CCN(CCc4cc(F)c(C5CCC(=O)NC5=O)cc4F)CC3)CC2)c(C)cc1Nc1ncc(Br)c(Nc2cccc3c2N(S(C)(=O)=O)CC3)n1` (centres unmarked) [Example 155, 3-(4-(2-(4-(1-(4-((5-bromo-4-((1-(methylsulfonyl)indolin-7-yl)amino)pyrimidin-2-yl)amino)-5-methoxy-2-methylphenyl)piperidin-4-yl)piperazin-1-yl)ethyl)-2,5-difluorophenyl)piperidine-2,6-dione] showed a DC50 (EGFR DTC) of 19 nM and a DC50 (EGFR LTC) of 56 nM.

Molecule `COc1cc(N2CCC(N3CCN(C(=O)C4CCN(c5ccc6c(c5)C(=O)N(C5CCC(=O)NC5=O)C6=O)CC4)CC3)CC2)c(C)cc1Nc1ncc(Cl)c(Nc2cccc3c2N(S(C)(=O)=O)CC3)n1` (centres unmarked) [Example 178, 5-(4-(4-(1-(4-((5-chloro-4-((1-(methylsulfonyl)indolin-7-yl)amino)pyrimidin-2-yl)amino)-5-methoxy-2-methylphenyl)piperidin-4-yl)piperazine-1-carbonyl)piperidin-1-yl)-2-(2,6-dioxopiperidin-3-yl)isoindoline-1,3-dione] has a DC50 (EGFR DTC) of 8 nM and a DC50 (EGFR LTC) of 23 nM.

`COc1cc(N2CCC(N3CCN(C[C@H]4CCN(c5ccc6c(c5)C(=O)N(C5CCC(=O)NC5=O)C6=O)C4)CC3)CC2)c(C)cc1Nc1ncc(Br)c(Nc2cccc3c2N(S(C)(=O)=O)CC3)n1` (stereo partly drawn) [Example 156, 5-((R)-3-((4-(1-(4-((5-bromo-4-((1-(methylsulfonyl)indolin-7-yl)amino)pyrimidin-2-yl)amino)-5-methoxy-2-methylphenyl)piperidin-4-yl)piperazin-1-yl)methyl)pyrrolidin-1-yl)-2-(2,6-dioxopiperidin-3-yl)isoindoline-1,3-dione] gave a DC50 (EGFR DTC) of 21 nM and a DC50 (EGFR LTC) of 33 nM.

Work on `COc1cc(N2CCC(N3CCN(C4CC(c5ccc(NC6CCC(=O)NC6=O)cc5)C4)CC3)CC2)c(C)cc1Nc1ncc(Br)c(Nc2cccc3c2N(S(C)(=O)=O)CC3)n1` (centres unmarked) [Example 182, 3-((4-(3-(4-(1-(4-((5-bromo-4-((1-(methylsulfonyl)indolin-7-yl)amino)pyrimidin-2-yl)amino)-5-methoxy-2-methylphenyl)piperidin-4-yl)piperazin-1-yl)cyclobutyl)phenyl)amino)piperidine-2,6-dione] yielded a DC50 (EGFR DTC) of 77 nM and a DC50 (EGFR LTC) of 70 nM.

Work on `COc1cc(N2CCC(N3CCN(CC4CCN(c5ccc6c(c5)CN(C5CCC(=O)NC5=O)C6=O)CC4)CC3)CC2)c(C)cc1Nc1ncc(Br)c(Nc2cccc3c2N(S(C)(=O)=O)CC3)n1` (centres unmarked) [Example 175, 3-(5-(4-((4-(1-(4-((5-bromo-4-((1-(methylsulfonyl)indolin-7-yl)amino)pyrimidin-2-yl)amino)-5-methoxy-2-methylphenyl)piperidin-4-yl)piperazin-1-yl)methyl)piperidin-1-yl)-1-oxoisoindolin-2-yl)piperidine-2,6-dione] yielded a DC50 (EGFR DTC) of 17 nM and a DC50 (EGFR LTC) of 31 nM.

`CCc1cc(Nc2ncc(Br)c(Nc3cccc4c3N(S(C)(=O)=O)CC4)n2)c(OC)cc1N1CCC(N2CCN(CCC3CCN(c4cc(F)c(C5CCC(=O)NC5=O)c(F)c4)CC3)CC2)CC1` (centres unmarked) [Example 160, 3-(4-(4-(2-(4-(1-(4-((5-bromo-4-((1-(methylsulfonyl)indolin-7-yl)amino)pyrimidin-2-yl)amino)-2-ethyl-5-methoxyphenyl)piperidin-4-yl)piperazin-1-yl)ethyl)piperidin-1-yl)-2,6-difluorophenyl)piperidine-2,6-dione] showed a DC50 (EGFR DTC) of 150 nM and a DC50 (EGFR LTC) of 162 nM.

For `COc1cc(N2CCC(N3CCN(C(=O)[C@H]4C[C@H](N(C)c5ccc6c(c5)C(=O)N(C5CCC(=O)NC5=O)C6=O)C4)CC3)CC2)c(C)cc1Nc1ncc(Br)c(Nc2cccc3c2N(S(C)(=O)=O)CC3)n1` (some centres unmarked) [Example 158, 5-(((1r,3r)-3-(4-(1-(4-((5-bromo-4-((1-(methylsulfonyl)indolin-7-yl)amino)pyrimidin-2-yl)amino)-5-methoxy-2-methylphenyl)piperidin-4-yl)piperazine-1-carbonyl)cyclobutyl)(methyl)amino)-2-(2,6-dioxopiperidin-3-yl)isoindoline-1,3-dione], the DC50 (EGFR DTC) was 19 nM and the DC50 (EGFR LTC) was 41 nM.
